Results reported in patent US8192962B2, “Processes for detecting toxic substances” (Daikin Industries, Ltd., priority 2001, dated 2012).

Test system: Genes belonging to other category
Assay: DNA chip mRNA expression in yeast, genes belonging to other category (Table 9)
Type: cell-based, Saccharomyces cerevisiae S288C
Outline: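 Measured as treated-to-untreated fluorescence ratio on a full-genome yeast DNA chip. Cells (S288C, YPD, 25° C.) were exposed in log phase for two hours to one chemical, dosed to curb growth without killing.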

Measured: The level of expressed mRNA in the presence of chemical substance/The level of expressed mRNA in the absence of chemical substance

manganese ethylenebis(dithiocarbamate) [(8)]
1.7: yeast gene YBL041W | yeast gene YCL020W | yeast gene YHR071W
0.5: yeast gene YCR088W | yeast gene YDR432W | yeast gene YKL096W
2.1: yeast gene YBL043W | yeast gene YNL333W
0.9: yeast gene YCR071C | yeast gene YHR004C | yeast gene YKL013C | yeast gene YLR120C | yeast gene YLR178C | yeast gene YMR104C
2.6: yeast gene YOR261C
5.8: yeast gene YDL238C
1.9: yeast gene YOR288C
1.5: yeast gene YDR510W | yeast gene YFL028C | yeast gene YKL165C
2.2: yeast gene YLR327C
1.2: yeast gene YCR004C | yeast gene YDL008W | yeast gene YDR358W | yeast gene YER130C | yeast gene YKL008C | yeast gene YMR314W | yeast gene YOR132W | yeast gene YOR157C
1.4: yeast gene YDR259C | yeast gene YDR315C | yeast gene YEL066W | yeast gene YKL193C | yeast gene YLR362W | yeast gene YNR069C | yeast gene YOR036W | yeast gene YOR185C
1.6: yeast gene YBL078C | yeast gene YDR055W | yeast gene YMR226C | yeast gene YPR108W
0.4: yeast gene YJR004C
1.3: yeast gene YAR010C | yeast gene YDR104C | yeast gene YDR115W | yeast gene YGL158W | yeast gene YGR136W | yeast gene YHR139C | yeast gene YHR142W | yeast gene YLR250W | yeast gene YOR124C | yeast gene YOR198C
1.0: yeast gene YBL005W-A | yeast gene YDR481C | yeast gene YFL043C | yeast gene YGR189C | yeast gene YGR257C | yeast gene YJL073W | yeast gene YLR429W | yeast gene YMR004W | yeast gene YMR094W | yeast gene YOL013C | yeast gene YOL164W | yeast gene YOR117W | yeast gene YOR383C | yeast gene YPR103W
2.0: yeast gene YDR085C | yeast gene YGR213C
1.1: yeast gene YJL089W | yeast gene YJR086W | yeast gene YLR136C | yeast gene YMR219W | yeast gene YNL006W | yeast gene YNR010W | yeast gene YOR259C | yeast gene YPL109C | yeast gene YPL149W
0.8: yeast gene YDR388W | yeast gene YER107C | yeast gene YFL022C | yeast gene YKL039W | yeast gene YMR275C | yeast gene YMR276W | yeast gene YNL007C | yeast gene YNL093W | yeast gene YOR355W | yeast gene YPL089C | yeast gene YPL154C
0.6: yeast gene YCL027W | yeast gene YIL123W
0.7: yeast gene YBR214W | yeast gene YDR084C | yeast gene YEL042W | yeast gene YER039C | yeast gene YGL229C | yeast gene YIL140W | yeast gene YLR356W | yeast gene YLR391W | yeast gene YOR181W
1.8: yeast gene YJL116C
